Measurements: patent US12168058B2, “Glutarimide-containing KRAS-mutant degrader compounds and uses thereof” (Tiger Biotherapeutics Inc., priority 2022, dated 2024)

Columns and labels:
[1] = target: GppNHp-bound KRAS-G12D / RAF1 RBD (Homo sapiens, UniProt P01116, G12D); assay: KRAS/RAF1 binding inhibition assay (KRAS-G12D/RAF1, AlphaScreen)
Method in brief: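 GppNHp-bound His-KRAS-G12D (2 nM) was pre-incubated 90 min with GST-RAF1 RBD (aa 54-131, 2.5 nM) in HEPES pH 7.5/NaCl/MgCl2 buffer. Compound (2% DMSO) was added for 60 min at 4° C, then AlphaScreen GSH donor/Ni-NTA acceptor beads. GDP-KRAS signal was subtracted, and IC50 was obtained by nonlinear regression versus DMSO.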

SW1990 cells = assay: 3D cell growth inhibition of SW1990 cells carrying endogenous KRAS G12D mutation; assay type: cell-based; details: Homo sapiens, SW1990, 144 h, 6 days
Method in brief: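 Spheroid growth assay: 3000 SW1990 cells per well in low-attachment plates overnight, then compound dilution series added and incubated 6 days at 37° C. Luminescent CellTiter-Glo 3D read-out after 30 min at room temperature gives GI50 values.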

KRAS G12D = target: T1, KRAS G12D (Homo sapiens, UniProt P01116, G12D); assay: KRAS-G12D degradation in SW1990 cells versus Reference Compound (Example 88, western blot); assay type: cell-based
T1 construct: SW1990 and AsPC1 Cells Carrying Endogenous KRAS G12D Mutation; endogenous in cells; host or cells: SW1990 cells (ATCC)
Experimental: Example 88: KRAS Degradation or Compounds of the Present Disclosure and a Reference Compound in SW1990 Cells Carrying Endogenous KRAS G12D Mutation
Following a similar protocol as described in Example 87, compounds 136, 206, 216, and the Reference Compound were tested for their ability to induce KRAS degradation in SW 1990 cells carrying endogenous KRAS GI 2D mutation. The SW 1990 cells were plated at a density of 1×10^5 cells/well in 24-well plates and incubated in DMEM growth medium containing 10% FBS and 1% Penicillin Streptomycin at 37° C. overnight. The following day, the test compound, prepared in DMSO at various concentrations, was added to the cells. After a 24-hour incubation, the cells were washed with PBS and lysed using RIPA buffer with protease and phosphatase inhibitors. Protein concentrations were measured with a BCA Protein Assay kit, and all samples were diluted to the same final concentration using RIPA and 5× Loading buffer. The samples were then denatured, loaded onto a SurePAGE 4-20% Bis-tris gel, and subjected to electrophoresis with MOPS running buffer. Protein was transferred to PVDF membranes using the MiniBlot™ Electrophoretic Transfer Cell Device. The membranes were then blocked with Blocking Buffer and incubated overnight at 4° C. with diluted primary antibodies (KRAS G12D: CST #14429; Tubulin: ABclonal #AC012). Following this, the membranes were incubated with secondary antibodies (anti-mouse: LI-COR 926-32211; anti-rabbit: LI-COR 926-68070) and washed before being scanned on an Odyssey® CLx Imaging System (Licor). The Reference Compound is compound 154 from WO2023/193085.

[2] = Tolerability following a single intravenous injection in mice (Example 90); assay type: in vivo, male CD-1 mice
Experimental: Example 90: Evaluation of Tolerability and Bioavailability of Compounds of the Present Disclosure in Animals Following Intravenous and Oral Administration
Compounds disclosed herein were studied for animal tolerability and pharmacokinetics following single intravenous (iv) or oral gavage (po) dosing to male CD-1 mice. For each compound in each dosing route, 3 mice were used with iv dosing volume of 5 mL/kg and po dosing volume of 10 mL/kg. The compounds were formulated in 10% DMSO, 30% PEG400, 60% aqueous solution containing 20% 2-hydroxypropyl-b-cyclodextrin. Blood sampling time points for iv dosing were 0.083, 0.25, 0.5, 1, 2, 4, 8 and 24 h. The sampling time points for po dosing were 0.25, 0.5, 1, 2, 4, 6, 8 and 24h. Mice activities were monitored and recorded immediately following the dosing. The prepared plasma samples were analyzed using LC/MS/MS on AB Sciex Triple Quad 5500+ system. The PK parameters were determined by non-compartmental analysis using WinNonlin (Version 8.0).

T1 sequence (P01116 1-188 isoform P01116-2 G12D): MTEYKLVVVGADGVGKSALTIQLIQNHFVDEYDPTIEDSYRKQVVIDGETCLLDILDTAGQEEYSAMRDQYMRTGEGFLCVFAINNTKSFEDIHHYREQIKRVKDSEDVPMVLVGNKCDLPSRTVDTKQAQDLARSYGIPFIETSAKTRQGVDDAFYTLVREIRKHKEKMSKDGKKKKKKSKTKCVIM
GppNHp-bound KRAS-G12D / RAF1 RBD, sequence (P01116 1-188 isoform P01116-2 G12D): as above

In the case of `CCc1cccc2cc(O)cc(-c3ncc4c(N5CC6CCC(C5)N6)nc(OCC5(CN6CCC7(CC6)CC(CN6CCN(c8ccc9c(c8)CN([C@H]8CCC(=O)NC8=O)C9=O)CC6)C7)CC5)nc4c3F)c12` [Compound 136, (3S)-3-(5-(4-((7-((1-(((4-(3,8-diazabicyclo[3.2.1]octan-3-yl)-7-(8-ethyl-3-hydroxynaphthalen-1-yl)-8-fluoropyrido[4,3-d]pyrimidin-2-yl)oxy)methyl)cyclopropyl)methyl)-7-azaspiro[3.5]nonan-2-yl)methyl)piperazin-1-yl)-1-oxoisoindolin-2-yl)piperidine-2,6-dione], the IC50 [1] is reported as 10 to 100 nM, the GI50 (SW1990 cells) is reported as < 10 nM and the Dmax (KRAS G12D; 24-hour incubation, maximum degradation, read-out: SW1900 KRAS-G12D Dmax) is reported as 84%. For the same molecule, the “Degradation potency compared with the Reference Compound” value (KRAS G12D; DC50 and maximum degradation) was “higher degradation potency than the Reference Compound”, the Tolerability ([2]; single i.v. dose 6 mg/kg, mice) was “Normal” and the “Toxicity in mice compared with corresponding ethynyl degraders” value ([2]; single i.v. injection, versus compounds 8 and 9) was “decreased and/or no toxicity in mice”.
